Assay results from PubChem BioAssay AID624129 (Sanford-Burnham Center for Chemical Genomics, 2012).
Active and inactive are the calls of the source. How the calls were made is not given here.

Biological target: C-X-C chemokine receptor type 6 (Homo sapiens) (UniProt O00574)
Test: CXCR6 receptor antagonists, dose response, cell-based, beta-arrestin, DiscoveRx, APJ panel, uHTS hits (AID 624129)
Conditions: CXCR6 beta-arrestin (DiscoveRx) antagonist cell assay; for outcome: CXCR6, dose range 1
[1] = CXCR6, dose range 1, mean IC50 across replicates
[2] = CXCR6, run 2, dose range 1, at 79 µM (top of the series)

C-X-C chemokine receptor type 6 (Homo sapiens), sequence (O00574 whole entry, looked up): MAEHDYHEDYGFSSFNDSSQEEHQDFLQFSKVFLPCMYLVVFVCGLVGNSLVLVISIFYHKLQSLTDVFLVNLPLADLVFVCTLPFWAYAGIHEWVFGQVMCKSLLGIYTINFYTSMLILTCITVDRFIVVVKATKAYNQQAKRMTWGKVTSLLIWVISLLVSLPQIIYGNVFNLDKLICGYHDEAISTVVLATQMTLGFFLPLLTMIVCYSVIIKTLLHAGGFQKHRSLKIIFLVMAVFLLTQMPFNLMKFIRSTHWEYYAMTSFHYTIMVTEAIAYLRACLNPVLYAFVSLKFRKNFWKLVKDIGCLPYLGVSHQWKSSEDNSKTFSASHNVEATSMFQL

| outcome | IC50 [1] [µM] | IC50 (CXCR6, run 1, dose range 2) [µM] | inhibition [2] [%] | IC50 (CXCR6, run 2, dose range 2) [µM] | inhibition (CXCR6, run 2, dose range 1, at 39.5 µM (top of the series)) [%] | SMILES |
| --- | --- | --- | --- | --- | --- | --- |
| inactive | 30.5 | 37.3 | 50.8 | 23.7 |  | CC1=C(C)CC2C(C1)C(=O)c1ccc(Br)cc1S2(=O)=O (stereo not given) |
| inactive | 13.8 | 11.9 | 88.9 | 15.7 |  | O=C(NCc1cccnc1)/C(=C\c1ccc(-c2cccc(Cl)c2)o1)S(=O)(=O)c1ccccc1 |
| inactive | 48.9 | 48.9 | 62 | > 79 |  | Cc1ccc(NC(=S)NNc2ccc(C(=O)O)cc2[N+](=O)[O-])cc1C |
| inactive | 14.7 | 13.5 | 111 | 15.9 |  | COc1cccc2sc(N(CCCN(C)C)C(=O)CCS(=O)(=O)c3ccccc3)nc12 |
| inactive | 12.4 | 9.56 | 87.7 | 15.2 |  | Cc1cccc(NC(=S)N/N=C/c2ccc([N+](=O)[O-])s2)c1 |
| inactive | 13.7 | 11.8 | 112 | 15.5 |  | O=C(C(=Cc1ccc(F)cc1)C(=O)c1ccccc1)c1ccccc1 |
| inactive | 12.9 | 12.5 | 112 | 13.4 |  | O=C(Nc1ccc(F)cc1)c1nc(S(=O)(=O)Cc2ccccc2)ncc1Cl |
| inactive | 47.2 | 61 | 96.9 | 33.4 |  | C=CCSC1=N/C(=C\c2cc(OCC)c(OC(C)=O)c([N+](=O)[O-])c2)C(=O)S1 |
| inactive | 45.1 | 70.5 | 82.2 | 19.7 |  | O=[N+]([O-])c1ccc(Sc2nc3ccccc3o2)c([N+](=O)[O-])c1 |
| inactive | 28.9 | 12.5 | 75.2 | 45.4 |  | CC(=NO)C1CCC2C3CCC4=CC(=NO)CCC4(C)C3C(O)CC12C (stereo not given) |
| inactive | 21.9 | 18.3 | 77.5 | 25.6 |  | Cn1c(=O)[nH]c(=O)c2c1nc(Sc1nc3ccccc3s1)n2Cc1ccccc1 |
| inactive | 12.6 | 11.7 | 65.4 | 13.4 |  | C=CCN(CC=C)C(=S)NC(=O)c1ccc(C)c(Br)c1 |
| inactive | 25.1 | 22.6 | 107 | 27.5 |  | Cc1cc(C)nc(S/C=C/C(=O)c2ccccc2)n1 |
| inactive | 17.1 | 15.4 | 109 | 18.9 |  | Cc1ccccc1CS(=O)(=O)c1ncc(Cl)c(C(=O)Nc2ccc(F)cc2)n1 |
| inactive | 15.9 | 13.2 | 99.2 | 18.5 |  | CCN(CC)CCn1c(N)c(S(=O)(=O)c2ccccc2)c2nc3ccccc3nc21 |
| inactive | 30.3 | 30.3 | 58.4 | > 79 |  | O=C(NC(=S)Nc1ccccc1O)c1cccnc1 |
| inactive | 19.1 | 18 | 108 | 20.2 |  | CC1(C)Cc2ccccc2C(NNC(=O)c2ccccn2)=N1 |
| inactive | 27.8 | 25 | 110 | 30.5 |  | O=C1c2cccc3c([N+](=O)[O-])ccc(c23)C(=O)N1Cc1cccnc1 |
| inactive | 13.7 | 13 | 104 | 14.3 |  | Cc1ccc(NC(=O)c2nc(S(=O)(=O)Cc3ccccc3C)ncc2Cl)cc1C |
| inactive | 11.8 | 15.4 | 82.8 | 8.27 |  | CCC(C)c1ccc(O)c(NC(=S)NC(=O)c2cccs2)c1 (stereo not given) |
| inactive | 16.9 | 15.7 | 109 | 18 |  | Cc1cccc(CS(=O)(=O)c2ncc(Cl)c(C(=O)NCc3ccc4c(c3)OCO4)n2)c1 |
| inactive | 20.5 | 17.2 | 84.7 | 23.7 |  | CCn1nccc1C(=O)Nc1nc2ccccc2n1CCN1CCCCC1 |
| inactive | 13.1 | 12.4 |  | 13.8 | 74.7 | CCN(CC(=O)NC(C)(C)C)Cc1nc2c(Br)cc(Br)cc2c(=O)[nH]1 |
| inactive | 24 | 23.8 | 111 | 24.3 |  | O=[N+]([O-])c1cc(-c2ncccn2)c([N+](=O)[O-])s1 |
| inactive | 28.7 | 24.6 | 86.6 | 32.8 |  | COc1cc(C2C(C#N)=C(N)Oc3n[nH]c(-c4cccnc4)c32)cc(Br)c1O (stereo not given) |

| outcome | IC50 [1] [µM] | IC50 (CXCR6, run 1, dose range 2) [µM] | inhibition [2] [%] | IC50 (CXCR6, run 2, dose range 2) [µM] | inhibition (CXCR6, run 2, dose range 1, at 39.5 µM (top of the series)) [%] | SMILES |
| --- | --- | --- | --- | --- | --- | --- |
| inactive | 12 | 12.2 | 112 | 11.9 |  | O=[N+]([O-])c1cc2no[n+]([O-])c2cc1N1CCCCC1 |
| inactive | 14.3 | 12.5 | 67.6 | 16.1 |  | COc1cccc(-c2nnc(NC(=O)c3ccc(Cl)s3)o2)c1 |
| inactive | 22.3 | 16.7 | 72.2 | 27.8 |  | COc1cc(C(=O)NCC(c2ccco2)N2CCc3ccccc3C2)cc(OC)c1OC (stereo not given) |
| inactive | 13.5 | 12.6 | 108 | 14.4 |  | O=C(C#Cc1cccc([N+](=O)[O-])c1)c1ccccc1 |
| inactive | 13.9 | 14.5 | 110 | 13.3 |  | Cn1cnc([N+](=O)[O-])c1S(=O)(=O)c1ccc(Cl)cc1 |
| inactive | 19.5 | 19.2 | 97 | 19.9 |  | O=C(N/N=C/c1ccc([N+](=O)[O-])o1)c1sc2ccccc2c1Cl |
| inactive | 28.4 | 33.1 | 71.1 | 23.8 |  | COc1ccc(-c2c(C(=O)c3ccccc3)[nH]c(N)c2C(=O)c2ccccc2)cc1OC |
| inactive | 21.5 | 19.5 | 108 | 23.5 |  | O=C1C=CC2C3C(=O)N(c4ccccc4)C(=O)C3C1N2Cc1ccccc1 (stereo not given) |
| inactive | 42.2 | 42.2 | 23.1 | > 79 |  | COC(=O)CSc1[nH]c2ccc(Br)cc2c1[N+](=O)[O-] |
| inactive | 38.8 | 33.7 | 81.7 | 43.9 |  | CCOc1ccc(Nc2ccc([N+](=O)[O-])c3nonc23)cc1 |
| inactive | 14.7 | 14.3 | 112 | 15.2 |  | COc1ccc(/C=C2/CCC(CN3CCOCC3)C2=O)cc1 (stereo not given) |
| inactive | 13.5 | 10.4 | 105 | 16.6 |  | Cc1ccc(NC(=S)NNc2ncc(C(F)(F)F)cc2Cl)cc1 |
| inactive | 11.3 | 10.9 | 113 | 11.6 |  | O=C(C#Cc1ccccc1)c1ccccc1 |
| inactive | 51 | 65.1 | 98.3 | 37 |  | Nc1cccc2c1C(=O)N(C(=O)/C=C/c1cccc(F)c1)C2=O |
| inactive | 12.1 | 11 | 111 | 13.1 |  | CCc1ccc(NC(=O)c2nc(S(=O)(=O)Cc3ccccc3)ncc2Cl)cc1 |
| inactive | 16.9 | 16.4 | 108 | 17.4 |  | Cc1ccc(NC(=O)C2=C(c3ccccc3)S(=O)(=O)CCS2(=O)=O)cc1 |
| inactive | 21.4 | 20.1 | 76 | 22.7 |  | CC(O)CN(CC(C)O)c1ccc2c(c1)Cc1cc([N+](=O)[O-])ccc1-2 (stereo not given) |
| inactive | 30.4 | 26.5 | 109 | 34.3 |  | COc1ccc2nc(-n3c(O)c(C4=c5ccccc5=NC4=O)[nH]c3=S)sc2c1 |
| inactive | 15.5 | 15.7 | 110 | 15.2 |  | O=C1C=CC(=O)N1CCNc1ncc(C(F)(F)F)cc1Cl |
| inactive | 11.6 | 11.2 | 109 | 12 |  | Fc1ccc(NC(=S)NNc2ncc(C(F)(F)F)cc2Cl)c(F)c1 |
| inactive | 24 | 26.3 | 70.4 | 21.6 |  | CCOC(=O)C1=C(C)NC2=C(C(=O)CC(c3cccs3)C2)C1c1cccs1 (stereo not given) |
| inactive | 19.4 | 16.5 | 111 | 22.3 |  | Cn1cnc([N+](=O)[O-])c1S(=O)(=O)Oc1ccccc1 |
| active | 7.79 | 7.79 | 41.4 | > 79 |  | Cc1cccc(Cc2cnc(N3C(=N)SC(C)C3=O)s2)c1 (stereo not given) |
| inactive | 35.1 | > 79 | 106 | 35.1 |  | COc1ccc(NC(=S)NNc2ccc([N+](=O)[O-])cc2S(=O)(=O)Nc2ccc(C)cc2C)cc1 |
